# Test results as given in patent US20240158393A1, “PYRIDONE COMPOUNDS AND METHODS OF USE” (Exelixis, Inc., priority 2021, published 2024).
# Where a name gives a salt, the structure may show the parent alone.
# Target: T1, Human Mer (Homo sapiens, UniProt Q12866)
# T1 construct: Human Mer (residues R557-E882 with H628Q and R794A, 0.7 nM); purchased Eurofins Pharma Discovery Services UK Limited (KinaseProfiler service)
# T1 sequence (Q12866 557-882 limits assumed): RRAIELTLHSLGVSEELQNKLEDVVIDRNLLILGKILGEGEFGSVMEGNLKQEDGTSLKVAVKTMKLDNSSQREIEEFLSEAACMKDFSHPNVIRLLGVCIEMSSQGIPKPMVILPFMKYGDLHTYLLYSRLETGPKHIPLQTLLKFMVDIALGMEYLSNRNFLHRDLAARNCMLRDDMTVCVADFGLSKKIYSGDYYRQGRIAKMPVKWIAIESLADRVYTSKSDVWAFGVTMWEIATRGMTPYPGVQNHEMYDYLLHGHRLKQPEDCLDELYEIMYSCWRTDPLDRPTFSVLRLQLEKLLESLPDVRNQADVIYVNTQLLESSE
# Assay: Human Mer kinase assay (33P radiometric / HTRF KinEase)
# Format: biochemical
# Details: protocols of Examples C-1 and/or C-2
# In short: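 Two formats yield IC50 values. HTRF KinEase used MER residues 528-999 with ATP at Km (40 μM), 1 μM biotin-peptide, 60 min RT, […], 10 concentrations. 33P filter assay used 0.7 nM Mer R557-E882 (H628Q/R794A), 10 μM ATP, 250 μM peptide, 40 min RT, top 1 μM.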
row,SMILES,IC50 [nM]
1,"COCCOc1cnc2c(Oc3ccc(NC(=O)c4c(C)n(C)c(C)c(C5=CCCCC5)c4=O)cc3F)ccnc2c1 [Compound 66, 5-(Cyclohexen-1-yl)-N-[3-fluoro-4-[[7-(2-methoxyethoxy)-1,5-naphthyridin-4-yl]oxy]phenyl]-1,2,6-trimethyl-4-oxopyridine-3-carboxamide]",≤ 100
2,"COCCOc1cnc2c(Oc3ccc(NC(=O)c4c(C)n(C)c(C)c(C5=CCCC5)c4=O)cc3F)ccnc2c1 [Compound 65, 5-(Cyclopenten-1-yl)-N-[3-fluoro-4-[[7-(2-methoxyethoxy)-1,5-naphthyridin-4-yl]oxy]phenyl]-1,2,6-trimethyl-4-oxopyridine-3-carboxamide]",≤ 100
3,"COc1cc2nccc(Oc3ccc(NC(=O)c4c5n(c(C)c(C6=CCOCC6)c4=O)CCOC5)cc3)c2nc1OC [Compound 73, 7-(3,6-Dihydro-2H-pyran-4-yl)-N-[4-[(6,7-dimethoxy-1,5-naphthyridin-4-yl)oxy]phenyl]-6-methyl-8-oxo-3,4-dihydro-1H-pyrido[2,1-c][1,4]oxazine-9-carboxamide]",≤ 100
4,"COc1cc2nccc(Oc3ccc(NC(=O)c4c5n(cc(C6=CCCCC6)c4=O)CCOC5)cc3F)c2nc1OC [Compound G1-4, 7-(Cyclohexen-1-yl)-N-[4-[(6,7-dimethoxy-1,5-naphthyridin-4-yl)oxy]-3-fluorophenyl]-8-oxo-3,4-dihydro-1H-pyrido[2,1-c][1,4]oxazine-9-carboxamide]",≤ 100
5,"COc1cc2nccc(Oc3ccc(NC(=O)c4cnc(C)c(C5=CCCC5)c4O)cc3F)c2nc1OC [Compound G1-2, 5-(Cyclopenten-1-yl)-N-[4-[(6,7-dimethoxy-1,5-naphthyridin-4-yl)oxy]-3-fluorophenyl]-4-hydroxy-6-methylpyridine-3-carboxamide hydrochloride]",≤ 100
6,"COc1cc2nccc(Oc3ccc(NC(=O)c4cnc(C)c(C5=CCCCC5)c4O)cc3F)c2nc1OC [Compound G1-3, 5-(Cyclohexen-1-yl)-N-[4-[(6,7-dimethoxy-1,5-naphthyridin-4-yl)oxy]-3-fluorophenyl]-4-hydroxy-6-methylpyridine-3-carboxamide]",≤ 100

# The remaining lines, values ahead:
row,IC50 [nM],SMILES
1,≤ 100,"C=C(C)c1c(C)n(C)c(C)c(C(=O)Nc2ccc(Oc3ccnc4cc(OC)c(OC)nc34)cc2)c1=O [Compound 55, N-[4-[(6,7-Dimethoxy-1,5-naphthyridin-4-yl)oxy]phenyl]-1,2,6-trimethyl-4-oxo-5-prop-1-en-2-ylpyridine-3-carboxamide]"
2,≤ 100,"COCCOc1cc2nccc(Oc3ccc(NC(=O)c4c(C)n(C)c(C)c(/C=C/C5CCCC5)c4=O)cc3F)c2nc1OC [Compound 54, 5-[(E)-2-Cyclopentylethenyl]-N-[3-fluoro-4-[[6-methoxy-7-(2-methoxyethoxy)-1,5-naphthyridin-4-yl]oxy]phenyl]-1,2,6-trimethyl-4-oxopyridine-3-carboxamide]"
3,≤ 100,"COc1nc2c(Oc3ccc(NC(=O)c4c(C)n(C)c(C)c(C5=CCCC5)c4=O)cc3F)ccnc2cc1OCCC1CCC1 [Compound 74, N-[4-[[7-(2-Cyclobutylethoxy)-6-methoxy-1,5-naphthyridin-4-yl]oxy]-3-fluorophenyl]-5-(cyclopenten-1-yl)-1,2,6-trimethyl-4-oxopyridine-3-carboxamide]"
4,≤ 100,"COc1cc2nccc(Oc3ccc(NC(=O)c4c(C)n(C)c(C)c(C5=CCOCC5)c4=O)cc3F)c2nc1OC [Compound 53, 5-(3,6-Dihydro-2H-pyran-4-yl)-N-[4-[(6,7-dimethoxy-1,5-naphthyridin-4-yl)oxy]-3-fluorophenyl]-1,2,6-trimethyl-4-oxopyridine-3-carboxamide]"
5,≤ 100,"C=C(C)c1c(C)n(C)c(C)c(C(=O)Nc2ccc(Oc3ccnc4cc(OC)c(OC)nc34)c(F)c2)c1=O [Compound 52, N-[4-[(6,7-Dimethoxy-1,5-naphthyridin-4-yl)oxy]-3-fluorophenyl]-1,2,6-trimethyl-4-oxo-5-prop-1-en-2-ylpyridine-3-carboxamide]"
6,≤ 100,"COCCOc1cc2nccc(Oc3ccc(NC(=O)c4c(C)n(C)c(C)c(C5=CCCCC5)c4=O)cc3F)c2nc1OC [Compound 58, 5-(Cyclohexen-1-yl)-N-[3-fluoro-4-[[6-methoxy-7-(2-methoxyethoxy)-1,5-naphthyridin-4-yl]oxy]phenyl]-1,2,6-trimethyl-4-oxopyridine-3-carboxamide]"
